In brackets after ≈: the same amount, converted by molar mass.

These results are taken from patent US9708310B2, “Phenanthroindolizidine and phenanthroquinolizidine alkaloid having a hydroxyl group on the phenanthrene ring thereof, preparation method and use thereof” (CHINA MEDICAL UNIVERSITY, priority 2015, dated 2017).

For data set [1], the system named is rats. Particulars: high doses; cited from earlier work.
For data set [2] the following is noted: cited from earlier work.
The conditions of data set [3]: early clinical trial; cited from earlier work.
The conditions of data set [4]: predicted by PreADMET; cited from earlier work.
Data set [5] concerns breast carcinoma (MCF-7) cells. The experiment in a line: Cell viability (MTT) assay, MCF-7. It is filed as cell-based, human. The method, then: (§1) 8. Typical Procedure for Cell Viability Assay
(§2) The breast carcinoma (MCF-7), lung carcinoma (H1299), and prostate carcinoma (DU145) cells were first plated at a density of 5×10^3 cells per well in 96-well plates for overnight and then treated with different concentrations of these compounds. After 48 h of treatment, 100 µL of MTT solution was added to each well and the cells were incubated for 1 h at 37° C. Then, the MTT solution was completely removed and […] of DMSO was added to solubilize the MTT formazan crystals. Finally, the absorbance was measured using a MQX200R microplate reader (BioTek, VT, USA) at a wavelength of 550 nm.

Data set [6] relates to lung carcinoma (H1299) cells. The experiment in a line: Cell viability (MTT) assay, H1299. It is filed as cell-based, human. As for the experimental part:
as §1, §2

In data set [7] the test system is prostate carcinoma (DU145) cells. The data set is described as follows: Cell viability (MTT) assay, DU145. The data set is classed as cell-based, human. As for the experimental part:
as §1, §2

Data set [8] has as its system MCF-7, H1299, DU145 cancer cell lines. The data set is classed as cell-based, human. The method, then: as §2
The cytotoxic activities of 18 compounds 4a-i and 5a-i were evaluated against three human cancer cell lines, breast carcinoma (MCF-7), lung carcinoma (H1299), and prostate carcinoma (DU145), using tylophorine (4i) and 7-methoxycryptopleurine (5i) for comparison. […] In the phenanthroindolizidine series, the IC50 ratio of compounds 4a-h to tylophorine (4i) followed the order: 4a˜4h˜4e>4f>>4b˜[…]>4d>4g; however, in the phenanthroquinolizidine series, the IC50 ratio of compounds 5a-h to 7-methoxycryptopleurine (5i) followed the order: 5c˜5a˜5h˜5b>>5f˜5d>5e>5g. […] Based on the SAR results, a more polar phenanthroquinolizidine, 7-hydroxycryptopleurine (20), was designed and synthesized to decrease the CNS toxicity and increase the water solubility. […]

Data set [9] can be described thus: Solubility in the dosing solvent system. To be noted: 2.5% DMSO, 2.5% EtOH, 5% Cremophor EL, and 90% normal saline.
The subject of data set [10] is normal human lung fibroblast cell line, MRC-5. The data set is described as follows: Cytotoxicity against normal lung fibroblasts MRC-5. The data set is classed as cell-based. Particulars: MRC5.
The subject of data set [11] is cyclin D1, CDK4, cyclin E, CDK2, cyclin B1, and CDK1. The experiment in a line: Western blot of H1299 cell cycle associated protein. The data set is classed as cell-based, human. Particulars: H1299 cells, 7, 14, and 21 nM, 12, 24, and 48 h. As for the experimental part:
9. The Effect of Compound 20 on H1299 Cell Cycle Associated Protein
9.1 Western Blot Analysis
H1299 cells were first seeded at a density of 3×10^5 cells per well in six-well plates overnight and then treated with compound 20 at three different concentrations (7, 14, and 21 nM) for 12, 24, and 48 h. The cells were washed with PBS buffer and lysed in ice-cold RIPA buffer for 30 min. The supernatant was collected and centrifuged at 15,000 rpm at 4° C. for 30 min. The protein concentration was measured with a Bio-Rad assay using a MQX200R microplate reader (BioTek, VT, USA). The cell lysates were separated by 10% SDS-PAGE and electrophoretically transferred onto polyvinylidene difluoride (PVDF) membranes (Millipore, Bedford, Mass.). After several washes, the membranes were blocked with 5% skim milk in TBST (tris-buffered saline containing 0.1% Tween-20) at room temperature for 1 h and incubated with different primary antibodies against cyclin D1, CDK4, cyclin E, CDK2, cyclin B1, and CDK1 (1:2000 dilution) at 4° C. for overnight. […] After washing three times in TBST, the bound antibody was visualized using ECL Western Blotting Reagent (PerkinElmer, Boston), and chemiluminescence was detected using a Fuji Medical X-ray film (Tokyo, Japan).
All the data were expressed as means±SEM for three replicate experiments. […]
(In western blotting, separated proteins are transferred to a membrane and probed.)

The subject of data set [12] is female athymic nude mice. The experiment in a line: Rotarod test for motor coordination (neurotoxicity). Particulars: i.p., 20 at 10 mg/kg vs 5i at 0.08 mg/kg, 15 administrations, 5 rpm, three consecutive days. It is filed as in vivo. From the text: 10. Rotarod Test for Motor Coordination
The protocol of rotarod test was based on those described in the literature [Y. Z. Lee, C. W Yang, H. Y. Hsu, Y. Q. Qiu, T. K. Yeh, H. Y. Chang, et al., J. Med. Chem. 2012, 55, 10363-10377] with slight modifications. Eight week-old female athymic nude mice were used. All the animal experiments followed ethical standards, and the protocols have been reviewed and approved by the Animal Care and Use Committee of China Medical University (IACUC approval no: 102-235-N). The mice were randomly divided into two groups (n=3) and treated with compound 20 (10 mg/kg) or 7-methoxycryptopleurine 5i (0.08 mg/kg) intraperitoneally. The compounds were dissolved in a mixture of 2.5% DMSO, 2.5% EtOH, 5% Cremophor EL, and 90% normal saline. Each group was administered once daily, five days per week for 15 times in total. After 15 administrations of the compounds, the mice were placed on the rotarod apparatus for training (day 1) and test (days 2-4) with the rod set in motion at a constant speed of 5 rpm. The latency time to fall from the rotating rod was recorded for a maximum of 180 s.
On the technique in general: In the rotarod test animals must keep their balance on a rotating rod.

Data set [13] is described as follows: physchem. Particulars: aqueous with cosolvent or surfactant or cyclodextrin.
Where [14] appears, read: Homo sapiens, MCF7, 48 h treatment.
[15] abbreviates: Homo sapiens, NCI-H1299, 48 h treatment.
[16] abbreviates: Homo sapiens, DU-145, 48 h treatment.

On to `COc1cc2c3c(c4cc(OC)c(OC)cc4c2cc1OC)CN1CCC[C@@H]1C3` [Compound 1, (R)-tylophorine], for which, in data set [1], the CNS side effects result is recorded as “caused central nervous system (CNS) side effects”. In addition, the water solubility result in data set [2] is listed as “low”.

Regarding `COc1cc2c3c(c4ccc(OC)c(OC)c4c2cc1OC)CN1CCC[C@@H]1C3` [Compound 2, (R)-tylocrebrine], in data set [3], the clinical trial outcome is recorded as “failed in the early clinical trial owing to CNS toxicity”.

Consider `COc1ccc2c3c(c4cc(OC)c(OC)cc4c2c1)C[C@H]1C[C@H](O)CCN1C3` [Compound 3], for which the BBB penetration result in [4] is on record as “significantly reduced the BBB penetration”.

Consider `COc1cc2c3c(c4cc(OC)c(OC)c(OC)c4c2cc1OC)CN1CCCCC1C3` (centres unmarked) [Compound 5e, 2,3,5,6,7-Pentamethoxy-10,11,12,13,13a,14-hexahydro-9H-9a-azabenzo[b]triphenylene], for which the melting point fell in the range of 166 to 167 °C. In data set [5] (setting [14]), this compound had an IC50 of 0.0193 µM. 0.0276 µM corresponded to half-maximal inhibition in [6] (setting [15]) (IC50). In data set [7] (setting [16]), this compound returned an IC50 of 0.0238 µM.

For `COc1ccc2c(c1)c1c(c3cc(OC)c(OC)cc32)CC2CCCCN2C1` (centres unmarked) [Compound 5f, 2,3,7-Trimethoxy-10,11,12,13,13a,14-hexahydro-9H-9a-azabenzo[b]triphenylene], the melting point lay in the range of 156 to 158 °C. It took 0.0687 µM to reach half-maximal inhibition in data set [5] (setting [14]) (IC50). In [6] (setting [15]), this compound yielded an IC50 of 0.0573 µM. In data set [7] (setting [16]), the IC50 came out at 0.0418 µM. In [8], the “fold increase in the cytotoxicity relative to compound 4f” value was 28-36 fold.

Consider `COc1cc2c3c(c4c(OC)c(OC)c(OC)cc4c2cc1OC)CN1CCCCC1C3` (centres unmarked) [Compound 5h, 2,3,6,7,8-Pentamethoxy-10,11,12,13,13a,14-hexahydro-9H-9a-azabenzo[b]triphenylene], for which the melting point was 211 °C (dec.). Besides, half-maximal inhibition in data set [5] (setting [14]) (IC50) was put at 0.277 µM. For the same compound, in data set [6] (setting [15]), inhibition was half-maximal at 0.232 µM (IC50). This compound also yielded an IC50 in [7] (setting [16]) of 0.215 µM.

For `COc1cc2c3c(c4cc(OC)c(OC)cc4c2cc1OC)CN1CCCCC1C3` (centres unmarked) [Compound 5i, 7-Methoxycryptopleurine], the IC50 in data set [5] (48 h treatment) is 0.0107 µM; in [6] (48 h treatment), 0.0071 µM; in data set [7] (48 h treatment), 0.0045 µM. Also, the “solubility in the solvent system” value in [9] is listed as “less than 0.08 mg/mL”.

For `COc1cc2c(cc1O)c1c(c3cc(OC)c(OC)cc32)CC2CCCCN2C1` (centres unmarked) [Compound 20, 7-Hydroxy-2,3,6-trimethoxy-10,11,12,13,13a,14-hexahydro-9H-9a-azabenzo[b]triphenylene], the melting point lay in the range of 114 to 115 °C. This compound also registered an IC50 in data set [5] (setting [14]) of 0.0064 µM. Moreover, in [6] (setting [15]), the IC50 was found to be 0.0052 µM. For the same compound, it took 0.0044 µM to reach half-maximal inhibition in data set [7] (setting [16]) (IC50). The IC50 in data set [10] is 0.026 µM. The “cell cycle associated protein expression” value in data set [11] is “decrease in cyclin D1-cdk4, cyclin E-cdk2, and cyclin B1-cdk1 expression”. Besides, the “motor coordination (neurotoxicity), rotarod” value in [12] was “better motor coordination than the compound 5i-treated group”. The compound also returned a solubility in data set [13] of around 1300 µg/mL (≈ 3.3 mM).

As a reminder, the IC50 is the concentration at which inhibition is half-maximal. A low value points to greater potency. For orientation: melting point means the temperature of the solid-liquid transition. By solubility is commonly meant the dissolved amount per volume that the medium holds. Read a low solubility as little dissolved substance.
